Biological target: T1, RAGE (Mus musculus, UniProt Q62151)
T1 construct: The first set of studies employed synthetic Aβ infused in to wild-type mice; from tissue; host or cells: brain vasculature (blood-brain barrier) of living wild-type mice
Experiment: Brain perfusion model: Aβ binding to brain capillaries and transport across the BBB
Format: in vivo, mice
Experimental: FIGS. 1A-1F. […] FIG. 1A and bFIG.
Brain perfusion model. […] Details of the extracorporeal perfusion circuit were as reported elsewhere. ^22,23,38,39 At the start of the perfusion, the contralateral common carotid artery was ligated, and both jugular veins severed to allow free drainage of the perfusate. Brains were perfused with oxygenated perfusion medium at a flow rate of 1 ml/min by peristalitic pump. […] Perfusion pressure and animal's own arterial blood pressure were continuously monitored. Blood gasses pO2, pCO2 and pH and electrolytes in the arterial inflow and in animal's own blood were monitored.
Injection of radioisotopes for transport studies. […] When the effects of different unlabeled molecular reagents were tested, those were injected 5 min prior to tracers injection and than simultaneously with radiolabled ligands. At predetermined times within 10 min mice were sacrificed by decapitation, and brain tissue prepared for radioactivity analysis. TCA and HPLC analysis as we described were used to determine molecular forms of uptake of radiolabeled Aβ by the BBB.^22,23 Capillary-depletion technique was used to separate micravascular pellet from capillary-depleted brain to quantify in vivo binding to microvessels vs. transport into brain parenchyma, as we reported.^22, 23
Mathematical modeling for transport studies. […] The rate of entry (KIN) is computed from eq. 1: d[CIN (TEST-MOLEUCLE)−CIN (ALBUMIN)]/dt=KINCPL−KOUT[CIN (TEST-MOLECULE)−CIN (ALBUMIN)], where KOUT is exit or efflux transfer coefficient, and R is the steady state or equilibrium ratio. Eq. 1 is integrated to give [CIN (TEST-MOLECULE)−CIN (ALBUMIN)]/CPL=R (1−e^−KOUT T) (eq. 2). R is the steady state ratio, and the ratio KIN/KOUT at infinite time, and T is infusion time. Numerical values for KOUT may be obtained from the slope of the plot of ln (R−[CIN (TEST-MOLECULE)−CIN (ALBUMIN)]/CPL) (eq. 3) against T, using the equation KOUT=−ln(R−[CIN (TEST-MOLECULE)−CIN (ALBUMIN)]/CPL)/T (eq. 4). Finally, the value for KIN is derived by substituting the number for KOUT in: KIN=R KOUT (eq. 5). When tracer uptake remains linear over studied period of time, the exist constant approaches zero, and KIN=d[CIN (TEST-MOLEUCLE)−CIN (ALBUMIN)]/dt CPL. […] Advanced graphics software and the MLAB mathematical modeling system (as above) will be used to obtain graphic plots and compute transfer coefficients.

[1] = reagent in arterial inflow, 125I-Aβ 4 nM, 10 min
[2] = circulating 125I-labeled peptide, mice and guinea pigs

T1 sequence (Q62151 23-402): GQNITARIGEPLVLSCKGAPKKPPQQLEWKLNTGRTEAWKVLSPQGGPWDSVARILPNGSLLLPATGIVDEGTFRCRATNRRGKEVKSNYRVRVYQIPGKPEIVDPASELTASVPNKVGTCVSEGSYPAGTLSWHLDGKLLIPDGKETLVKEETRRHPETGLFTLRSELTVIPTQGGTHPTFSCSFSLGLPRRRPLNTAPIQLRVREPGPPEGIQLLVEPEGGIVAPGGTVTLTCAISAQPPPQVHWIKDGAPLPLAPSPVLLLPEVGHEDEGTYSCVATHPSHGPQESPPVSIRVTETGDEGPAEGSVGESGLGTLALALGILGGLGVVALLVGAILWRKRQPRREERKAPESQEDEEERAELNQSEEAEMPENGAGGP

| Substance | effect on Aβ transport into brain (BBB transport of Aβ) [1] | effect on binding of Aβ to brain microvessels [1] | binding of the peptide to brain microvessels [2] | transport of the peptide across the BBB [2] |
| --- | --- | --- | --- | --- |
| fucoidan | did not affect | did not affect | – | – |
| Aβ1-42: synthetic amyloid-β peptide 1-42, human form | – | – | absence of its significant binding | somewhat slower, but significant |
